One data set has as its target T1, THRβ (Homo sapiens, UniProt P10828).
T1 construct: RXRα and THRβ-LBD Eu-anti-GST antibody with GST tag
The experiment in a line: THRβ binding assay (time-resolved FRET coactivator peptide recruitment). The class given is biochemical. As to conditions: THRβ-LBD/RXRα, SRC2-2 coactivator peptide recruitment, 4 hours at room temperature. The method, then: Experimental methods: In vitro analysis of the agonistic effect of compounds on THRβ was performed using time-resolved fluorescence resonance energy transfer coactivator peptide recruitment assays. The assay used biotin-SRC2-2 coactivator peptide, streptavidin-d2, RXRα and THRβ-LBD Eu-anti-GST antibody with GST tag. Eu-anti-GST antibody indirectly labeled THRβ-LBD by binding to the GST tag. Streptavidin-d2 indirectly labeled the SRC2-2 coactivator peptide by binding to the biotin tag. In the presence of RXRα, THRβ-LBD can form heterodimer THRβ-LBD/RXRα with it. […] According to the effect of different concentrations of the compound on the activity of THRβ, the agonistic ability of the compound can be evaluated.
The detailed procedure is as follows: • a. 100× reference compound or compound was prepared with DMSO, and equally diluted by 1:3. • b. 100× gradiently diluted reference compound or compound was diluted with 1× reaction buffer to 4×, which was then added to an assay plate. • c. A mixed solution of 4× THRβ-LBD and 4× RXRα was prepared with 1× reaction buffer, and added to the assay plate. • d. A mixed solution of 2× biotin-SRC2-2, 2× Eu-anti-GST, and 2× streptavidin-d2 was prepared with 1× reaction buffer, and added to the assay plate. • e. The assay plate was centrifuged at 1000 rpm for 1 min, and incubated at room temperature in the dark for 4 hours. • f.

The target of the next data set is T2, THRα (Homo sapiens, UniProt P10827).
T2 construct: GST
T2 sequence (P10827 1-410 isoform P10827-2, other chains not shown): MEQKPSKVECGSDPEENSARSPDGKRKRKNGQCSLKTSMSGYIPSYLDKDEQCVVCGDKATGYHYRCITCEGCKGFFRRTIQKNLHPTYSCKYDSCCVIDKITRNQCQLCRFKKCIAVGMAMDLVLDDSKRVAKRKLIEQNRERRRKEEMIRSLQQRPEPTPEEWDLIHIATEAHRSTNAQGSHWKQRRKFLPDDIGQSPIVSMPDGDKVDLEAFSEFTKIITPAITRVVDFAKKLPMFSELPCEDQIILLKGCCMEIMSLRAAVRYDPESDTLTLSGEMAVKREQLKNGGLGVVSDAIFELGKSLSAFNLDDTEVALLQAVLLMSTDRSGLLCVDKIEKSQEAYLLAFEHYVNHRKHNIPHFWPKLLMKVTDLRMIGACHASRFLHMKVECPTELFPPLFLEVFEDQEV
T2 sequence (P19793 whole entry partner, other chains not shown): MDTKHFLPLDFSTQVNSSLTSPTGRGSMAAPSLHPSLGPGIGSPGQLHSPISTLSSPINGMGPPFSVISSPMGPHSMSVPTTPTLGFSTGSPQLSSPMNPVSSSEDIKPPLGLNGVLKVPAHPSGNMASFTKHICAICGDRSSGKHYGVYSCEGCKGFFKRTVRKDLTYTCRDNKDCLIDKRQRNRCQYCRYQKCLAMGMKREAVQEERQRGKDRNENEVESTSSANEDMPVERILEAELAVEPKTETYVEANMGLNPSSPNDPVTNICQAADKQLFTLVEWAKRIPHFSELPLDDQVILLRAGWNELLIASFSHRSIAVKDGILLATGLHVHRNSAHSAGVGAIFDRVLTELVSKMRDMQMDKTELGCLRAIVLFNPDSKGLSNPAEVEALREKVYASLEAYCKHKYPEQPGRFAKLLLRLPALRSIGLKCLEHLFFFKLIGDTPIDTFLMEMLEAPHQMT
Description: THRα binding assay (as the THRβ assay, THRβ replaced with THRα). The class given is biochemical. As to conditions: for EC50: THRα in place of THRβ; for THRα/β selectivity (fold): ratio of THRα EC50 to THRβ EC50.

Data set [1] is described as follows: In vitro liver microsome stability assay. It counts as in vitro ADME. As to conditions: liver microsomes, pH 7.4; human, 0.2 mg/mL liver microsomal protein, 1 μM test substance, 37° C.; read-out: Liver microsome stability (species: human): T½. The method, then: The test substance and the positive control substance verapamil were respectively dissolved with DMSO to 10 mM as a stock solution. The above 10 mM stock solution was diluted with 70% acetonitrile aqueous solution to a concentration of 0.25 mM.
An NADPH regeneration system finally containing concentrations of 6.5 mM NADP, 16.5 mM G-6-P, 3 U/mL G-6-PDH, and 3.3 mM MgCl was prepared.
Stopping solution was an acetonitrile solution containing tolbutamide and propranolol (both internal standards).
Phosphate buffer was a 100 mM K3PO4 (pH=7.4) buffer containing 3.3 mM MgCl2.
Liver microsomal incubation system was a 100 mM phosphate buffer containing 0.2 mg/mL liver microsomal protein and 1 μM test substance/positive control.
80 μL of the mixed solution from the incubation system was taken. 400 μL of the stopping solution was added to precipitate protein. The mixture was vortexed and added with 20 μL of NADPH regeneration system as the sample at 0 min.
130 μL of NADPH regeneration system was added to the remaining 520 μL of protein-drug mixed solution. The mixture was mixed well, and incubated. The final incubation system was 650 μL, containing 0.2 mg/mL liver microsomal protein, 1 μM test substance/positive control, 1.3 mM NADP, 3.3 mM G-6-P, and 0.6 U/mL G-6-PDH.
The mixed system was slowly shaken and incubated in a water bath at 37° C. 100 μL of the incubation solution was taken at 5, 10, 30, and 60 min, respectively, and added into a new 96-well plate with 400 μL of stopping solution in each well. The mixture in each well was mixed well, and the protein was precipitated by centrifuging at 4000×g for 15 minutes at 4° C.
100 μL of the supernatant was taken, and diluted with water at a ratio of 1:2. The samples were analyzed by LC-MS/MS.

T1 sequence (P10828 217-461 limits assumed, other chains not shown): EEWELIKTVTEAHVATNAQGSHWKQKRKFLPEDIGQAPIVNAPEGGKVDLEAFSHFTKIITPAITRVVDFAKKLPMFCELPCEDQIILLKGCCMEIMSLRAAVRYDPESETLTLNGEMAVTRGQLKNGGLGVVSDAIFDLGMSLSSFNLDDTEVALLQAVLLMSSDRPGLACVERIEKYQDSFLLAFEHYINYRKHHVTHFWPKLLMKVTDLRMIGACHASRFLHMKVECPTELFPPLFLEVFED
T1 sequence (P19793 whole entry partner, other chains not shown, the tested form may be a part): as the sequence (P19793 whole entry partner, other chains not shown) above

Take `N#Cc1nn(-c2cc(Cl)c(Oc3ccc(=O)n(C4CCC4)c3)c(Cl)c2)c(=O)[nH]c1=O` [Example 3, 2-(3,5-dichloro-4-[(1-cyclobutyl-6-oxo-1,6-dihydropyridin-3-yl)oxy]phenyl)-3,5-dioxo-2,3,4,5-tetrahydro-1,2,4-triazine-6-carbonitrile]: the midpoint of the response at THRβ, the EC50, lay at 23 nM. Moreover, at THRα, the EC50 amounted to 290 nM and the “THRα/β selectivity (fold)” value was 12.6 fold. In data set [1], the half-life at 1 μM is 62.8 min.
Take `N#Cc1nn(-c2cc(Cl)c(Oc3ccc(=O)n(C4CCCC4=O)c3)c(Cl)c2)c(=O)[nH]c1=O` (stereo not drawn) [Example 4, 2-(3,5-dichloro-4-((6-oxo-1-(2-oxocyclopentyl)-1,6-dihydropyridin-3-yl)oxy)phenyl)-3,5-dioxo-2,3,4,5-tetrahydro-1,2,4-triazine-6-carbonitrile]: the EC50 on THRβ was 561 nM. Besides, the half-life at 1 μM in data set [1] was determined as 110 min.
In the case of `N#Cc1nn(-c2cc(Cl)c(Oc3ccc(=O)n(CC4CCCC4)c3)c(Cl)c2)c(=O)[nH]c1=O` [Example 5, 2-(3,5-Dichloro-4-((1-(cyclopentylmethyl)-6-oxo-1,6-dihydropyridin-3-yl)oxy)phenyl) -3,5-dioxo-2,3,4,5-tetrahydro-1,2,4-triazine-6-carbonitrile], the EC50 on THRβ was 20 nM. Also, the half-life at 1 μM in data set [1] was 2.1 min.
Take `N#Cc1nn(-c2cc(Cl)c(Oc3ccc(=O)n(C4CCCCC4)c3)c(Cl)c2)c(=O)[nH]c1=O` [Example 9, 2-(3,5-Dichloro-4-((1-cyclohexyl-6-oxo-1,6-dihydropyridin-3-yl)oxy)phenyl)-3,5-dioxo-2,3,4,5-tetrahydro-1,2,4-triazine-6-carbonitrile]: the EC50 on THRβ was found to be 12 nM. Further, the half-life at 1 μM in data set [1] was 7 min.
As for `N#Cc1nn(-c2cc(Cl)c(Oc3ccc(=O)n(C4CC4)c3)c(Cl)c2)c(=O)[nH]c1=O` [Example 10, 2-(3,5-Dichloro-4-((1-cyclopropyl-6-oxo-1,6-dihydropyridin-3-yl)oxy)phenyl)-3,5-diox o-2,3,4,5-tetrahydro-1,2,4-triazine-6-carbonitrile], the EC50 on THRβ was determined as 107 nM. Moreover, the half-life at 1 μM in data set [1] was greater than 120 min.
Regarding `N#Cc1nn(-c2cc(Cl)c(Oc3ccc(=O)n(C4=CCCC4)c3)c(Cl)c2)c(=O)[nH]c1=O` [Example 11, 2-(3,5-Dichloro-4-((1-(cyclopentyl-1-en-1-yl)-6-oxo-1,6-dihydropyridin-3-yl)oxy)phenyl)-3,5-dioxo-2,3,4,5-tetrahydro-1,2,4-triazine-6-carbonitrile], it took 17 nM to reach a half-maximal effect on THRβ (EC50). For the same molecule, at THRα, the EC50 amounted to 236 nM and the “THRα/β selectivity (fold)” value worked out at 13.9 fold. The half-life at 1 μM in data set [1] was found to be 41.6 min.
`N#Cc1nn(-c2cc(Cl)c(Oc3ccc(=O)n(C4CCCC4)c3)c(Cl)c2)c(=O)[nH]c1=O` [Example 12]: on THRβ, it took 18 nM to reach a half-maximal effect (EC50). Further, in data set [1], the half-life at 1 μM stood at 4.4 min.
With `[2H]C1(n2cc(Oc3c(Cl)cc(-n4nc(C#N)c(=O)[nH]c4=O)cc3Cl)ccc2=O)CCCC1` [Example 14], the results for the EC50 at THRβ and at THRα were 30 nM and 600 nM, respectively. Besides, the “THRα/β selectivity (fold)” value at THRα is recorded as 20.0 fold. The half-life at 1 μM in data set [1] stood at 4.6 min.
`N#Cc1nn(-c2cc(Cl)c(Oc3cc(Cl)c(=O)n(C4CCCC4)c3)c(Cl)c2)c(=O)[nH]c1=O` [Example 15, 2-(3,5-Dichloro-4-[(5-chloro-1-cyclopentyl-6-oxo-1,6-dihydropyridin-3-yl)oxy]phenyl) -3,5-dioxo-2,3,4,5-tetrahydro-1,2,4-triazine-6-carbonitrile] had an EC50 on THRβ of 793 nM. Also, the half-life at 1 μM in data set [1] is 11.5 min.
`N#Cc1nn(-c2cc(Cl)c(Oc3cc(F)c(=O)n(C4CCCC4)c3)c(Cl)c2)c(=O)[nH]c1=O` [Example 16, 2-(3,5-Dichloro-4-((1-cyclopentyl-5-fluoro-6-oxo-1,6-dihydropyridin-3-yl)oxy)phenyl) -3,5-dioxo-2,3,4,5-tetrahydro-1,2,4-triazine-6-carbonitrile]: the EC50 on THRβ was 370 nM. The half-life at 1 μM in data set [1] was found to be 5.1 min.
As to `Cc1cc(Oc2c(Cl)cc(-n3nc(C#N)c(=O)[nH]c3=O)cc2Cl)cn(C2CCCC2)c1=O` [Example 17, 2-(3,5-Dichloro-4-[(1-cyclopentyl-5-methyl-6-oxo-1,6-dihydropyridin-3-yl)oxy]phenyl) -3,5-dioxo-2,3,4,5-tetrahydro-1,2,4-triazine-6-carbonitrile], the concentration giving a half-maximal response (EC50) at THRβ worked out at 450 nM. For the same molecule, in data set [1], the half-life at 1 μM is 3.2 min.
Turning to `N#Cc1nn(-c2cc(Cl)c(Oc3ccc(=O)n(-c4ccccc4)c3)c(Cl)c2)c(=O)[nH]c1=O` [Example 20, 2-(3,5-dichloro-4-((6-oxo-1-phenyl-1,6-dihydropyridin-3-yl)oxy)phenyl)-3,5-dioxo-2,3,4,5-tetrahydro-1,2,4-triazine-6-carbonitrile], at THRβ, the EC50 was found to be 88 nM. Moreover, on THRα, the midpoint of the response, the EC50, lay at 4180 nM and the “THRα/β selectivity (fold)” value is on record as 47.5 fold. Also, the half-life at 1 μM in data set [1] is greater than 120 min.
On THRβ, `N#Cc1nn(-c2cc(Cl)c(Oc3ccc(=O)n(-c4cccc(F)c4)c3)c(Cl)c2)c(=O)[nH]c1=O` [Example 22, 2-(3,5-Dichloro-4-((1-(3-fluorophenyl)-6-oxo-1,6-dihydropyridin-3-yl)oxy)phenyl)-3,5-dioxo-2,3,4,5-tetrahydro-1,2,4-triazine-6-carbonitrile] registered an EC50 of 20 nM. Further, on THRα, the concentration giving a half-maximal response (EC50) came to 669 nM and the “THRα/β selectivity (fold)” value is reported as 33.5 fold. In addition, the half-life at 1 μM in data set [1] was greater than 120 min.
Turning to `O=c1[nH]c(=O)n(-c2cc(Cl)c(Oc3ccc(=O)n(-c4cccc(F)c4)c3)c(Cl)c2)nc1CF` [Example 38, 2-(3,5-dichloro-4-((1-(3-fluorophenyl)-6-oxo-1,6-dihydropyridin-3-yl)oxy)phenyl)-6-(fluoromethyl)-1,2,4-triazine-3,5(2H, 4H)-dione], the EC50 on THRβ was 3 nM. Also, at THRα, the EC50 was 85 nM and the “THRα/β selectivity (fold)” value was determined as 28.3 fold.
As to `O=c1[nH]c(=O)n(-c2cc(Cl)c(Oc3ccc(=O)n(-c4cccc(C(F)(F)F)c4)c3)c(Cl)c2)nc1CF` [Example 39, 2-(3,5-Dichloro-4-((6-oxo-1-(3-(trifluoromethyl)phenyl)-1,6-dihydropyridin-3-yl)oxy)phenyl)-6-(fluoromethyl)-1,2,4-triazine-3,5(2H, 4H)-dione], the EC50 on THRβ is 5 nM. In addition, on THRα, the EC50 is 117 nM and the “THRα/β selectivity (fold)” value came out at 23.3 fold.
In the case of `O=c1[nH]c(=O)n(-c2cc(Cl)c(Oc3ccc(=O)n(-c4cccc(OC(F)(F)F)c4)c3)c(Cl)c2)nc1CF` [Example 40, 2-(3,5-Dichloro-4-((6-oxo-1-(3-(trifluoromethoxy)phenyl)-1,6-dihydropyridin-3-yl)oxy)phenyl)-6-(fluoromethyl)-1,2,4-triazine-3,5(2H, 4H)-dione], the EC50 on THRβ was found to be 4 nM; on THRα, 95 nM. Besides, the “THRα/β selectivity (fold)” value at THRα turned out to be 23.7 fold.
As to `Cc1ccc(-n2cc(Oc3c(Cl)cc(-n4nc(CF)c(=O)[nH]c4=O)cc3Cl)ccc2=O)cc1` [Example 41, 2-(3,5-dichloro-4-((6-oxo-1-(p-tolyl)-1,6-dihydropyridin-3-yl)oxy)phenyl)-6-(fluoromethyl)-1,2,4-triazine-3,5(2H, 4H)-dione], the EC50 on THRβ was 117 nM. Besides, on THRα, the midpoint of the response, the EC50, lay at 7630 nM and the “THRα/β selectivity (fold)” value amounted to 53.7 fold.
The like results for `Cc1cc(C)cc(-n2cc(Oc3c(Cl)cc(-n4nc(CF)c(=O)[nH]c4=O)cc3Cl)ccc2=O)c1` [Example 42, 2-(3,5-Dichloro-4-((1-(3,5-dimethylphenyl)-6-oxo-1,6-dihydropyridin-3-yl)oxy)phenyl) -6-(fluoromethyl)-1,2,4-triazine-3,5(2H, 4H)-dione] were, in that order, 9 nM, 696 nM and 72.5 fold.
